Experimental data from PMC7300657 (EMBO Molecular Medicine, 2020).
Where two headings read alike, the source gives them in different places.

How the values were obtained:
STK16 = STK16 (Homo sapiens, UniProt O75716); assay: biochemical; type: binding
GAK = target: T1, GAK (Homo sapiens, UniProt O14976); assay: biochemical; type: binding
T1 sequence (O14976 1-1311): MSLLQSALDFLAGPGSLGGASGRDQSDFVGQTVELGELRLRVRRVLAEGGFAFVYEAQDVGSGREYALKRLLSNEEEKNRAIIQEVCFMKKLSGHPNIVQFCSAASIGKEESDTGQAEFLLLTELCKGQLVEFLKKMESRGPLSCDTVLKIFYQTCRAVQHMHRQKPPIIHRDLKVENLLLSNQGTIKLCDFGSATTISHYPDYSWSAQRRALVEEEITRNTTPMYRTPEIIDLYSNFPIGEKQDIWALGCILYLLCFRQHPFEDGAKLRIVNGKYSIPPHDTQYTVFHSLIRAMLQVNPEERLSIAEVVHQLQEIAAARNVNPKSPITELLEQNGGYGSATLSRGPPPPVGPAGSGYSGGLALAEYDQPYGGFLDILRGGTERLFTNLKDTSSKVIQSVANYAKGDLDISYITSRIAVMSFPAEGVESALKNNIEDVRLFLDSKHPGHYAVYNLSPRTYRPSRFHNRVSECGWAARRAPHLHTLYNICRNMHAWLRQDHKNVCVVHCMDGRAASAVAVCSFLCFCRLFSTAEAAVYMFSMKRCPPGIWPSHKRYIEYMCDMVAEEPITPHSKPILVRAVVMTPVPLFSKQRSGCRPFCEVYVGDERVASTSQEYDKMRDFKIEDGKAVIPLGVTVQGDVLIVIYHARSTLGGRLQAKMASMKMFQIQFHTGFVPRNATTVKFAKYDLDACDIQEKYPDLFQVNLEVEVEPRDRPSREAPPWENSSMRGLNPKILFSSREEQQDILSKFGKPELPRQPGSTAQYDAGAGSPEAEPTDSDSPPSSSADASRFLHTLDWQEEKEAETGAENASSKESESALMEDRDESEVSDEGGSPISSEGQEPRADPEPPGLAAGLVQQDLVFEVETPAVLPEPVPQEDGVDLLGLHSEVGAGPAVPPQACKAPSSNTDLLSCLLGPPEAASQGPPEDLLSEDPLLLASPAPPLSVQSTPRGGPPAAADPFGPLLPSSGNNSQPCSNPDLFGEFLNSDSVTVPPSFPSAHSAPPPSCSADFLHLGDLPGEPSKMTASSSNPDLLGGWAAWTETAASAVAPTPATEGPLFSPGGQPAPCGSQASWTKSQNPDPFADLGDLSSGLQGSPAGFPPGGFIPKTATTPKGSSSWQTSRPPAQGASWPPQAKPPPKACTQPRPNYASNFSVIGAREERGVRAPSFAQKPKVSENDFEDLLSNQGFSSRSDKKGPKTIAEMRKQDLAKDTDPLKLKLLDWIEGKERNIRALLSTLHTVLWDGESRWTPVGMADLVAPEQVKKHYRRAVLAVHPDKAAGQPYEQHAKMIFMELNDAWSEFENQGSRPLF

BIKE = BIKE (Homo sapiens, UniProt Q9NSY1); assay: biochemical; type: binding
BIKE, sequence (Q9NSY1 whole entry): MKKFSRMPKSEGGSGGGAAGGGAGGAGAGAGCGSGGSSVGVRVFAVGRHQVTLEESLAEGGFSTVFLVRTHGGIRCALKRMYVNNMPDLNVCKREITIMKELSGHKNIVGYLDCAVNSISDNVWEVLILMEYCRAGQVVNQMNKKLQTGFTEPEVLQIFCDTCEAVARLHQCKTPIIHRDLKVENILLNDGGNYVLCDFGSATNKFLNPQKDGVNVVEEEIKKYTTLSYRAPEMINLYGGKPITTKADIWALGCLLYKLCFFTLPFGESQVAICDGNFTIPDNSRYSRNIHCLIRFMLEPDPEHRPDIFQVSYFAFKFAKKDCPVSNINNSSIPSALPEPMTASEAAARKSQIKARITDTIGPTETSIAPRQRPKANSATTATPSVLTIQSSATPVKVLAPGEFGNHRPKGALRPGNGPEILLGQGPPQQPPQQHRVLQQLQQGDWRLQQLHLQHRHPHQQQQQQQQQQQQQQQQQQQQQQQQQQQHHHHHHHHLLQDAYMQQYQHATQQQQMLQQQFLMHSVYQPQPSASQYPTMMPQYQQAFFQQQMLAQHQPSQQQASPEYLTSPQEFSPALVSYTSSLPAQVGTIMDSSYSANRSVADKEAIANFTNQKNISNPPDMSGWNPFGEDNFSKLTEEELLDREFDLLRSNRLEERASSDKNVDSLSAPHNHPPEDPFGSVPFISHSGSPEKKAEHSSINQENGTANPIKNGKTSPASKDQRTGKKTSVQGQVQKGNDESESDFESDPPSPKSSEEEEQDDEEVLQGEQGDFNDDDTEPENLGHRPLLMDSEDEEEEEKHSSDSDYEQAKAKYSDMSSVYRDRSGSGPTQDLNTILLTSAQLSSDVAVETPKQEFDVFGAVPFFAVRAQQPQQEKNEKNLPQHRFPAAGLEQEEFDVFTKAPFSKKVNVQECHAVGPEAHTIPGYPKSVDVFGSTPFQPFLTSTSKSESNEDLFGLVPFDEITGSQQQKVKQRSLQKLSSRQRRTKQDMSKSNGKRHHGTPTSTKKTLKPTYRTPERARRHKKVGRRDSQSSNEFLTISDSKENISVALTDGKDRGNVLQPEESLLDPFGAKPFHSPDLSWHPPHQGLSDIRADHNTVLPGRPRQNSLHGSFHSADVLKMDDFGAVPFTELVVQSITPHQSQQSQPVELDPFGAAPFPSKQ

AAK1 = AAK1 (Homo sapiens, UniProt Q2M2I8); assay: biochemical
AAK1, sequence (Q2M2I8 whole entry): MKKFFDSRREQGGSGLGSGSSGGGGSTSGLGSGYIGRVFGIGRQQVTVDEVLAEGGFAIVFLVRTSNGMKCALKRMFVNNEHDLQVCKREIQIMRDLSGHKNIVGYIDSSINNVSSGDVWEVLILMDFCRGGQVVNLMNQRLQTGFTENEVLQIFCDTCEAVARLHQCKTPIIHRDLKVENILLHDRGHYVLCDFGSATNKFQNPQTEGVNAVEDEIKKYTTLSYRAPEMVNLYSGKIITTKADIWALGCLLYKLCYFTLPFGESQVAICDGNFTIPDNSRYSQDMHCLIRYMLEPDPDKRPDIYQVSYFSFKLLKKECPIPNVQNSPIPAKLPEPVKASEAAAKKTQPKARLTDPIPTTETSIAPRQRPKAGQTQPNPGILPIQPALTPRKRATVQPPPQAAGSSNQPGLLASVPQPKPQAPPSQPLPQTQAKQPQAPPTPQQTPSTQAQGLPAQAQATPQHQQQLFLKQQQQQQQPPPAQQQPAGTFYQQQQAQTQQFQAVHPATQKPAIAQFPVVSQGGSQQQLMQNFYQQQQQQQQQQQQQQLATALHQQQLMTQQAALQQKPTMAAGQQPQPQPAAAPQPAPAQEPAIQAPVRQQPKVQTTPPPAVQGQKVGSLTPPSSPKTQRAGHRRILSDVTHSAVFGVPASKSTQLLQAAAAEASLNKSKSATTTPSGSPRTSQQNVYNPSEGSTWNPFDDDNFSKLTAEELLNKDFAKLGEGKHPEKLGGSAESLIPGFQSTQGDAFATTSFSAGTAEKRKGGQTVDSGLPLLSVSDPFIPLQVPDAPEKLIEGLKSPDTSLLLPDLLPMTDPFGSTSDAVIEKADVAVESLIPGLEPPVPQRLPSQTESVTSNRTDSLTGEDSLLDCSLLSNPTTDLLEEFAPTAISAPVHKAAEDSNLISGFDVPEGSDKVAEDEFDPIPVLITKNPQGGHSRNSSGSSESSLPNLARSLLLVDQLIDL

SARS‐CoV‐2 [1] = test system: SARS‐CoV‐2
[2] = cited from earlier work
SARS‐CoV‐2 [3] = type: cell-based; conditions: pretreatment 24 h with 400 and 800 nM, MOI 0.1, 48 h after infection, P < 0.05
[4] = test system: cytokine‐induced JAK/STAT signaling; assay: Cytokine-stimulated pSTAT inhibition in human leukocyte subpopulations (flow cytometry); type: cell-based; conditions: human CD4+ T cells, CD8+ T cells, NK cells, monocytes; 1 h preincubation, 15 min cytokine stimulation
Protocol: Leukocyte preparation and experimental design were largely performed as previously described (McInnes et al, 2019). Whole blood samples from healthy donors (N = 6) were apheresed, and leukocyte‐enriched fractions were transferred to the company Primity Bio (Fremont, CA, USA). […] Cytokines were used at the following concentrations: IL‐2 (4 ng/ml), IL‐3 (12 ng/ml), IL‐4 (350 pg/ml), IL‐6 (1.5 ng/ml), IL‐10 (12 ng/ml), IL‐15 (850 pg/ml), IL‐21 (200 pg/ml), IFN‐γ (100 pg/ml), G‐CSF (5 ng/ml), and GM‐CSF (5 pg/ml). The choice of cytokine concentrations and incubation conditions was optimized in order to ensure consistent signaling in alternate cell types and pSTAT readouts. After stimulation, cells were fixed, permeabilized, and fluorescence‐barcoded, and multicolor flow cytometry was performed as previously described to quantify STAT phosphorylation in gated leukocyte subpopulations (McInnes et al, 2019). For a given case (stimulation, cell type, and pSTAT combination), the IC50 was determined if there was a consistent response to the stimulus as described in the statistical analysis section. The primary pSTAT observed for each stimulus is reported. […]
IC50 values were determined by analyzing the mean fluorescence intensity (MFI) of cytokine‐stimulated samples in the presence of the designated concentration of compound. […]

[5] = design: method as in Genovese et al, 2019; conditions: RA patients, 10,127 patients-year of exposure, up to 6.9 years; ref Genovese et al, 2019; cited from earlier work
JAK2 = conditions: ref Fridman et al, 2010; cited from earlier work
[6] = test system: primary human liver spheroids; assay: Viability of primary human liver spheroids (intracellular ATP); type: cell-based; conditions: up to concentrations approximately eightfold higher than clinical AUC at 4 mg ([…]), n = 10
IL‐6 = conditions: patients with active RA, inadequate response to methotrexate, P < 0.05

STK16, sequence (O75716 whole entry): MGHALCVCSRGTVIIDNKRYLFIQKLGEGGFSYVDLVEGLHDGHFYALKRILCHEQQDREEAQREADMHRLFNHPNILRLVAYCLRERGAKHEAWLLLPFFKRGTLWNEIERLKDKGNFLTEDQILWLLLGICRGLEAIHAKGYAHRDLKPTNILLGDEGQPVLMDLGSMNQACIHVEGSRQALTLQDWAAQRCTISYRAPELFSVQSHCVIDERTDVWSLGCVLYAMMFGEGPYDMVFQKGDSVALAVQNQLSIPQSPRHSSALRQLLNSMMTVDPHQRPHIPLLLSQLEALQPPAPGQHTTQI

SMILES	Kd (STK16)	Kd (GAK; read-out: GAK Kd)	Kd (BIKE)	Kd (AAK1)	Kd (GAK)	clinical outcome of case series (SARS‐CoV‐2 [1]; 4 mg (Patients A, C, D) or 2 mg (Patient B) once daily oral, 10-12 days)	tolerability (SARS‐CoV‐2 [1]; four patients, 2 or 4 mg once daily oral, 10-12 days)	liver aminotransferases (SARS‐CoV‐2 [1]; four patients, during baricitinib treatment)	time to improvement of liver enzyme elevations (SARS‐CoV‐2 [1]; without interrupting baricitinib treatment)	unbound fraction of free bioavailable drug, AUC ([2]; RA patient sera, baricitinib 2 mg, ref data on file)	half-life ([2]; RA patients, ref Eli Lilly and Company, 2019)	main clearance mechanism ([2]; ref Eli Lilly and Company, 2019)	reduction of viral load (SARS‐CoV‐2 [3])	signaling of cytokines implicated in COVID-19 infection (IL-2, IL-6, IL-10, IFN-γ, G-CSF), pSTAT inhibition [4]	incidence rate of serious infection [5]	binding affinity for JAK2 (JAK2)	liver cell injury / spheroid viability [6]	change from baseline in plasma IL-6 at week 12 (IL‐6)
NC(=O)Nc1cc(-c2cccc(F)c2)sc1C(=O)N[C@H]1CCCNC1 [AZD7762]	1.9 µM	0.0014 µM	0.013 µM	0.0029 µM														
CC[C@@H]1CN(C(=O)NCC(F)(F)F)C[C@@H]1c1cnc2cnc3[nH]ccc3n12 [Upadacitinib]	9.3 µM		11 µM		2.2 µM													
CCS(=O)(=O)N1CC(CC#N)(n2cc(-c3ncnc4[nH]ccc34)cn2)C1 [Baricitinib]						improved lung function, resolution of their illness, and reductions in viral load, plasma IL‐6, ferritin, and CRP levels	well‐tolerated	Transient increases	≤ 72 h	326 nM	approximately 12 h	renal elimination	30–40%	inhibited signaling	2.8 /100 patient‐years	5.7 nM	did not result in liver cell injury	significant reduction
